Test results reported in patent US20090324682A1 (priority 2004, published 2009).

Experiments:
[1] = tested on: Human smooth muscle cells (SMC); assay: Proliferation of human smooth muscle cell cultures treated with rhodamine 123 and/or FDG; format: cell-based
Protocol: Human smooth muscle cells (SMC) were treated with rhodamine 123 and/or with FDG.
Three levels of Rhodamine 123 concentration were used first: 0.05, 1 and 2.5 mg/ml.
A combined composition of FDG and Rhodamine at various dosages were evaluated on the same human SMC cultures. The doses (FDG/rhodamine in mg/ml) were as follows: […]

[2] = Maximal tolerated dose of Rhodamine 123 delivered intra-venously in man; format: in vivo; details: 70 kg patient
Protocol: Because inhibitors of oxidative phorphorylation are extremely toxic to a subject in the doses needed for efficacy via the systemic route, such inhibitors have been largely overlooked for effective treatment of conditions such as cancer. […] It is also known that the maximal tolerated dose of Rhodamine 123 delivered intra-venously in man is 95 mg/m^2. For a 70 kg patient, the maximum dose of systemically delivered rhodamine is about 150 mg. […] There was an accumulation of rhodamine in the prostate of the patients, but it was not sufficient to provoke a significant response.

prostate tumours = details: maximum non-lethal systemic dose, cited from earlier work

## rhodamine 123
[1]
  concentration enough to stop smooth muscle cell proliferation: 5 µg/mL
[1]; Rhodamine 123 0.05 mg/ml
  proliferation rates of SMC compared to non rhodamine treated cells: 90+21.6%
[1]; Rhodamine 123 1 mg/ml
  proliferation rates of SMC compared to non rhodamine treated cells: 51.2 ± 10.7%
[1]; Rhodamine 123 2.5 mg/ml
  proliferation rates of SMC compared to non rhodamine treated cells: 7.3 ± 5.1%
[1]; higher rhodamine concentrations (above 2.5 mg/ml)
  SMC proliferation: totally suppressed
[2]
  maximum dose of systemically delivered rhodamine: about 150 mg
Prostate tumours
  effect on prostate tumours: no useful effect
Prostate tumours; not sufficient to provoke a significant response
  rhodamine in the prostate of the patients: accumulation
